Results from patent US20230085307A1, “PYRIDAZINONE COMPOUND AND HERBICIDE” (NISSAN CHEMICAL CORPORATION, priority 2019, published 2023).

What was measured:
[1] = test system: barnyard grass; experiment: Test Example 3: herbicidal effect by foliage application, Wagner pot (Table 18, symbol H); format: in vivo, barnyard grass (Echinochloa crus-galli); settings: for herbicidal effect on H: barnyard grass: amount of applied herbicide 320 g/ha
Method in brief: (§1)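 Plants were sown in alluvial soil held under 0.1–0.5 cm standing water and grown 14 days in a greenhouse at 25–30 °C. An emulsifiable formulation, water-diluted to the set dose, was then sprayed onto the foliage, and effects were scored three weeks later using previously defined criteria.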

[2] = test system: Chinese sprangletop; experiment: Test Example 3: herbicidal effect by foliage application, Wagner pot (Table 18, symbol D); format: in vivo, chinese sprangletop (Leptochloa chinensis); settings: for herbicidal effect on D: Chinese sprangletop: amount of applied herbicide 320 g/ha
Method in brief: as §1

[3] = test system: rice flat sedge; experiment: Test Example 3: herbicidal effect by foliage application, Wagner pot (Table 18, symbol E); format: in vivo, rice flat sedge (Cyperus iria); settings: for herbicidal effect on E: rice flat sedge: amount of applied herbicide 320 g/ha
Method in brief: as §1

[4] = test system: southern crabgrass; experiment: Test Example 5: herbicidal effect by foliage application, plastic box (Table 20, symbol F); format: in vivo, southern crabgrass (Digitaria ciliaris); settings: 320 g/ha; for F: southern crabgrass, herbicidal effect grade: foliage application, three weeks after application
Method in brief: (§2)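 Plants sown in sterilized diluvial soil and grown 14 days in a greenhouse at 25° C to 30° C, then sprayed on the foliage with the compound's emulsion diluted in water to a predetermined herbicide amount. Injury to weeds and crops scored three weeks after application on a visual rating scale.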

[5] = test system: green foxtail; experiment: Test Example 5: herbicidal effect by foliage application, plastic box (Table 20, symbol G); format: in vivo, green foxtail (Setaria viridis); settings: 320 g/ha; for G: green foxtail, herbicidal effect grade: foliage application, three weeks after application
Method in brief: as §2

[6] = test system: barnyard grass; experiment: Test Example 5: herbicidal effect by foliage application, plastic box (Table 20, symbol H); format: in vivo, barnyard grass (Echinochloa crus-galli); settings: 320 g/ha; for H: barnyard grass, herbicidal effect grade: foliage application, three weeks after application
Method in brief: as §2

[7] = test system: wild oat; experiment: Test Example 5: herbicidal effect by foliage application, plastic box (Table 20, symbol I); format: in vivo, wild oat (Avena fatua); settings: 320 g/ha; for I: wild oat, herbicidal effect grade: foliage application, three weeks after application
Method in brief: as §2

[8] = test system: blackgrass; experiment: Test Example 5: herbicidal effect by foliage application, plastic box (Table 20, symbol J); format: in vivo, blackgrass (Alopecurus myosuroides); settings: 320 g/ha; for J: blackgrass, herbicidal effect grade: foliage application, three weeks after application
Method in brief: as §2

[9] = test system: Italian ryegrass; experiment: Test Example 5: herbicidal effect by foliage application, plastic box (Table 20, symbol K); format: in vivo, Italian ryegrass (Lolium multiflorum); settings: 320 g/ha; for K: Italian ryegrass, herbicidal effect grade: foliage application, three weeks after application
Method in brief: as §2

[10] = test system: windgrass; experiment: Test Example 5: herbicidal effect by foliage application, plastic box (Table 20, symbol L); format: in vivo, windgrass (Apera spica-venti); settings: 320 g/ha; for L: windgrass, herbicidal effect grade: foliage application, three weeks after application
Method in brief: as §2

[11] = test system: velvetleaf; experiment: Test Example 5: herbicidal effect by foliage application, plastic box (Table 20, symbol M); format: in vivo, velvetleaf (Abutilon theophrasti); settings: 320 g/ha; for M: velvetleaf, herbicidal effect grade: foliage application, three weeks after application
Method in brief: as §2

[12] = test system: redroot pigweed; experiment: Test Example 5: herbicidal effect by foliage application, plastic box (Table 20, symbol N); format: in vivo, redroot pigweed (Amaranthus retroflexus); settings: 320 g/ha; for N: redroot pigweed, herbicidal effect grade: foliage application, three weeks after application
Method in brief: as §2

[13] = test system: lambsquarters; experiment: Test Example 5: herbicidal effect by foliage application, plastic box (Table 20, symbol O); format: in vivo, lambsquarters (Chenopodium album); settings: 320 g/ha; for O: lambsquarters, herbicidal effect grade: foliage application, three weeks after application
Method in brief: as §2

[14] = test system: chickweed; experiment: Test Example 5: herbicidal effect by foliage application, plastic box (Table 20, symbol P); format: in vivo, common chickweed (Stellaria media); settings: 320 g/ha; for P: chickweed, herbicidal effect grade: foliage application, three weeks after application
Method in brief: as §2

[15] = test system: persian speedwell; experiment: Test Example 5: herbicidal effect by foliage application, plastic box (Table 20, symbol R); format: in vivo, Persian speedwell (Veronica persica); settings: 320 g/ha; for R: persian speedwell, herbicidal effect grade: foliage application, three weeks after application
Method in brief: as §2

[16] = foliage application after 14-day growth, evaluated three weeks after application

| SMILES | herbicidal effect on H: barnyard grass [1] | herbicidal effect on D: Chinese sprangletop [2] | herbicidal effect on E: rice flat sedge [3] | F: southern crabgrass, herbicidal effect grade [4] | G: green foxtail, herbicidal effect grade [5] | H: barnyard grass, herbicidal effect grade [6] | I: wild oat, herbicidal effect grade [7] | J: blackgrass, herbicidal effect grade [8] | K: Italian ryegrass, herbicidal effect grade [9] | L: windgrass, herbicidal effect grade [10] | M: velvetleaf, herbicidal effect grade [11] | N: redroot pigweed, herbicidal effect grade [12] | O: lambsquarters, herbicidal effect grade [13] | P: chickweed, herbicidal effect grade [14] | R: persian speedwell, herbicidal effect grade [15] | other results |
| --- | --- | --- | --- | --- | --- | --- | --- | --- | --- | --- | --- | --- | --- | --- | --- | --- |
| COCCOCOc1c(C)nn(C)c(=O)c1-c1c(-c2ccc(Oc3ncc(C(F)(F)F)cc3Cl)cc2)sc2ccc(F)cc12 [2-468] | 3 (Herbicidal rate of 40% or more and less than 70%) | 2 (Herbicidal rate of 20% or more and less than 40%) | 2 (Herbicidal rate of 20% or more and less than 40%) | 0 (Herbicidal rate of 5% or less (almost no effect)) | 0 (Herbicidal rate of 5% or less (almost no effect)) | 5 (Herbicidal rate of 90% or more (almost completely withered)) | 0 (Herbicidal rate of 5% or less (almost no effect)) | 0 (Herbicidal rate of 5% or less (almost no effect)) | 0 (Herbicidal rate of 5% or less (almost no effect)) | 0 (Herbicidal rate of 5% or less (almost no effect)) | 0 (Herbicidal rate of 5% or less (almost no effect)) | 1 (Herbicidal rate of 5% or more and less than 20%) | 2 (Herbicidal rate of 20% or more and less than 40%) | 0 (Herbicidal rate of 5% or less (almost no effect)) | 3 (Herbicidal rate of 40% or more and less than 70%) |  |
| Cc1nn(C)c(=O)c(-c2c(-c3ccc(Cl)cc3)sc3cc(F)ccc23)c1O [3-015] | 3 (Herbicidal rate of 40% or more and less than 70%) | 3 (Herbicidal rate of 40% or more and less than 70%) | 3 (Herbicidal rate of 40% or more and less than 70%) | 0 (Herbicidal rate of 5% or less (almost no effect)) | 0 (Herbicidal rate of 5% or less (almost no effect)) | 0 (Herbicidal rate of 5% or less (almost no effect)) | 0 (Herbicidal rate of 5% or less (almost no effect)) | 1 (Herbicidal rate of 5% or more and less than 20%) | 0 (Herbicidal rate of 5% or less (almost no effect)) | 5 (Herbicidal rate of 90% or more (almost completely withered)) | 0 (Herbicidal rate of 5% or less (almost no effect)) | 2 (Herbicidal rate of 20% or more and less than 40%) | 0 (Herbicidal rate of 5% or less (almost no effect)) | 4 (Herbicidal rate of 70% or more and less than 90%) | 2 (Herbicidal rate of 20% or more and less than 40%) |  |
| Cc1nn(C)c(=O)c(-c2c(-c3ccc(OC(F)F)cc3)sc3cc(Cl)ccc23)c1O [3-147] |  |  |  |  |  |  |  |  |  |  |  |  |  |  |  | herbicidal effect on barnyard grass (H) ([1]; 320 g/ha): 4 (Herbicidal rate of 70% or more and less than 90%); herbicidal effect on Chinese sprangletop (D) ([2]; 320 g/ha): 2 (Herbicidal rate of 20% or more and less than 40%); herbicidal effect on rice flat sedge (E) ([3]; 320 g/ha): 3 (Herbicidal rate of 40% or more and less than 70%); herbicidal effect on F: southern crabgrass (evaluation grade 0-5) [4, 16]: 3 (Herbicidal rate of 40% or more and less than 70%); herbicidal effect on G: green foxtail (evaluation grade 0-5) [5, 16]: 5 (Herbicidal rate of 90% or more (almost completely withered)); herbicidal effect on H: barnyard grass (evaluation grade 0-5) [6, 16]: 3 (Herbicidal rate of 40% or more and less than 70%); herbicidal effect on I: wild oat (evaluation grade 0-5) [7, 16]: 3 (Herbicidal rate of 40% or more and less than 70%); herbicidal effect on J: blackgrass (evaluation grade 0-5) [8, 16]: 5 (Herbicidal rate of 90% or more (almost completely withered)); herbicidal effect on K: Italian ryegrass (evaluation grade 0-5) [9, 16]: 3 (Herbicidal rate of 40% or more and less than 70%); herbicidal effect on L: windgrass (evaluation grade 0-5) [10, 16]: 5 (Herbicidal rate of 90% or more (almost completely withered)); herbicidal effect on M: velvetleaf (evaluation grade 0-5) [11, 16]: 4 (Herbicidal rate of 70% or more and less than 90%); herbicidal effect on N: redroot pigweed (evaluation grade 0-5) [12, 16]: 4 (Herbicidal rate of 70% or more and less than 90%); herbicidal effect on O: lambsquarters (evaluation grade 0-5) [13, 16]: 5 (Herbicidal rate of 90% or more (almost completely withered)); herbicidal effect on P: chickweed (evaluation grade 0-5) [14, 16]: 5 (Herbicidal rate of 90% or more (almost completely withered)); herbicidal effect on R: persian speedwell (evaluation grade 0-5) [15, 16]: 5 (Herbicidal rate of 90% or more (almost completely withered)) |
